Measurements: patent US20260272883A1, “SOLID STATE FORMS OF PIRTOBRUTINIB AND PROCESS FOR THE PREPARATION OF INTERMEDIATE THEREOF” (DR. REDDY'S LABORATORIES LIMITED, priority 2023, published 2026)

What was measured:
[1] = Stability of crystalline form P1 under 80% RH (open condition) and illumination (300-400 nm); type: physicochemical
[2] = Stability of crystalline form P1 at 25° C./60% RH and 40° C./75% RH for 3 months (closed conditions); type: physicochemical

Purity ([1]; 0 Day): 98.9%
Purity ([1]; Exposure at 80% RH for 1 day (Open Condition)): 98.9%
Purity ([1]; Illumination (300-400 nm) for 24 hours): 98.9%
Stability ([1]; high humidity and illumination conditions): stable
Physical and chemical stability ([1]; kept at 80% RH in open condition): physically and chemically stable
Physical and chemical stability ([1]; kept under illumination (300-400 nm) for 24 hours): physically and chemically stable
Purity ([2]; 0 Day): 98.9%
Stability ([2]; 3 months at accelerated conditions): stable
Purity ([2]; 25° C./60% RH (Closed Condition) (3 months)): 98.7%
Physical and chemical stability ([2]; 25° C./60% RH for 3 months under closed conditions): physically and chemically stable
Purity ([2]; 40° C./75% RH (Closed Condition) (3 months)): 98.9%
Stability ([2]; 40° C./75% RH for 3 months under closed conditions): stable
Structure (SMILES): COc1ccc(F)cc1C(=O)NCc1ccc(-c2nn([C@@H](C)C(F)(F)F)c(N)c2C(N)=O)cc1 [Crystalline form P1 of Pirtobrutinib, (S)-5-amino-3-(4-((5-fluoro-2-methoxybenzamido)methyl)phenyl)-1-(1,1,1-trifluoropropan-2-yl)-1H-pyrazole-4-carboxamide]
